Reference: article PMC10815831, “Comparison of Nuclear Medicine Therapeutics Targeting PSMA among Alpha-Emitting Nuclides” (International Journal of Molecular Sciences, 2024)

What was measured:
[1] = target: T1, prostate specific membrane antigen (PSMA) (Homo sapiens, UniProt Q04609); test: radioligand uptake in LNCaP (PSMA-high) cells, competition by unlabeled compound; PC3 (PSMA-low) as control; format: cell-based
T1 construct: gene FOLH1

[2] = target: T1, prostate specific membrane antigen (PSMA); test: radioligand uptake in LNCaP (PSMA-high) cells, competition by unlabeled PSMA-617; PC3 (PSMA-low) as control; format: cell-based

T1 sequence (Q04609 whole entry): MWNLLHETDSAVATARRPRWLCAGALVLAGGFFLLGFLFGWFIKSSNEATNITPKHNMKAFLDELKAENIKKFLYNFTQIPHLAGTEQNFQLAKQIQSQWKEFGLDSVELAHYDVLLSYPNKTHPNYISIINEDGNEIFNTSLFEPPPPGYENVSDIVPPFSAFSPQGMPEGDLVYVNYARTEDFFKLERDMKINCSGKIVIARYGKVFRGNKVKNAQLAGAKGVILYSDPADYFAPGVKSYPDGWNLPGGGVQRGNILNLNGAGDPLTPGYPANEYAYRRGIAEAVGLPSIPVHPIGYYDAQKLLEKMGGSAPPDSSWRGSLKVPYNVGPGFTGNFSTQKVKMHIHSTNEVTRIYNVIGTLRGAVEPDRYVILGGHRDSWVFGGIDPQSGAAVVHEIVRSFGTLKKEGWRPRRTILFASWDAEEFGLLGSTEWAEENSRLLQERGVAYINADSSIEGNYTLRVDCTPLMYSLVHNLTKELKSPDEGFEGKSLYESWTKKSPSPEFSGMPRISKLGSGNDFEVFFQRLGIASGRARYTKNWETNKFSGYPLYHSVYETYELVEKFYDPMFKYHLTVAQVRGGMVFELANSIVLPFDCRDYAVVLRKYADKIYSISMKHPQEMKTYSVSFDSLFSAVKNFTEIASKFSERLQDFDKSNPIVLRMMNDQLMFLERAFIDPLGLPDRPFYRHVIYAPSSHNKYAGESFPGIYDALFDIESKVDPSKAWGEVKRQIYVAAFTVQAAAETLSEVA

**Q.** For `O=C(O)CC[C@H](NC(=O)N[C@@H](CCCCNC(=O)[C@@H](Cc1ccc2ccccc2c1)NC(=O)c1ccc(CNC(=O)[C@@H](CCC(=O)O)NC(=O)[C@@H](CCC(=O)O)NC(=O)Cc2ccc([211At])cc2)cc1)C(=O)O)C(=O)O` [211At-PSMA-5], which IC50 [1] is on record?
**A.** 0.32 nM

**Q.** With `O=C([O-])CN1CCN(CC(=O)[O-])CCN(CC(=O)NCC2CCC(C(=O)NC(Cc3ccc4ccccc4c3)C(=O)NCCCC[C@H](NC(=O)N[C@@H](CCC(=O)O)C(=O)O)C(=O)O)CC2)CCN(CC(=O)[O-])CC1.[225Ac+3]` (some centres unmarked) [225Ac-PSMA-617] as the compound, how does the IC50 [2] read?
**A.** 2.64 nM
